Here are results for three compounds from patent US20090317452A1, “Transdermal patch” (Sekisui Chemical Co. td., priority 2006, published 2009).

The nature of series [1]: Solvency of the active substance in monomers (visual inspection). In kind it is physicochemical. On the set-up: key: Excellent: The active substance was not found to have been precipitated in the solution of active substance both immediately after the preparation and after the preservation for 7 days.; Good: The active substance was found to have been precipitated in the solution of active substance immediately after the preparation, but the active substance was not found to have been precipitated in the solution of active substance after the preservation for 7 days.; Poor: The active substance was found to have been precipitated in the solution of active substance both immediately after the preparation and after the preservation for 7 days. Particulars: 25° C., 7 days.

The nature of series [2]: Residual rate of the active substance in monomer solution (HPLC). In kind it is physicochemical. Particulars: for Residual Rate (% by weight) after 7 Days: 25° C.
[3] abbreviates: 3 parts active substance in 100 parts 1-Vinyl-2-Pyrrolidone.
Setting [4] is: 3 parts active substance in 100 parts 2-Ethylhexyl Acrylate.
Where [5] appears, read: 3 parts active substance in 100 parts 2-Ethylhexyl Methacrylate.
Setting [6] is: 3 parts active substance in 100 parts Acrylic Acid.
The mark [7] stands for this setting: 3 parts active substance in 100 parts Butyl Acrylate.
The mark [8] stands for this setting: 3 parts active substance in 100 parts Butyl Methacrylate.
The mark [9] stands for this setting: 3 parts active substance in 100 parts Dodecyl Methacrylate.
Where [10] appears, read: 3 parts active substance in 100 parts Ethyl Acrylate.
The mark [11] stands for this setting: in Butyl Acrylate, N.D. = equal to or less than the HPLC detection limit.
[12] abbreviates: in Ethyl Acrylate, N.D. = equal to or less than the HPLC detection limit.

As for `O=[N+]([O-])O[C@H]1CO[C@H]2[C@@H]1OC[C@H]2O[N+](=O)[O-]` [ISDN, isosorbide dinitrate], the “Solvency of the active substance” value in series [1] (setting [3]), in series [1] (setting [4]), in series [1] (setting [5]), in series [1] (setting [6]), in series [1] (setting [7]) and in series [1] (setting [8]) was “Excellent” each time. Also, the “Solvency of the active substance” value in series [1] (setting [9]) and in series [1] (setting [10]) was “Excellent” throughout. In addition, the “Residual Rate (% by weight) Immediately after Preparation” value (“Residual Rate (% by weight) Immediately” for short) in series [2] (in 1-Vinyl-2-Pyrrolidone), in series [2] (in 2-Ethylhexyl Acrylate), in series [2] (in 2-Ethylhexyl Methacrylate), in series [2] (in Acrylic Acid), in series [2] (in Butyl Acrylate) and in series [2] (in Butyl Methacrylate) was 100 % by weight throughout. Moreover, the “Residual Rate (% by weight) Immediately” value in series [2] (in Dodecyl Methacrylate) and in series [2] (setting [12]) was 100 % by weight throughout. Besides, the “Residual Rate (% by weight) after 7 Days” value in series [2] (in 1-Vinyl-2-Pyrrolidone) came to 100 % by weight; in series [2] (in 2-Ethylhexyl Acrylate) it was 100 % by weight; in series [2] (in 2-Ethylhexyl Methacrylate), 99 % by weight; in series [2] (in Acrylic Acid) it was 100 % by weight; in series [2] (setting [11]), 100 % by weight; in series [2] (in Butyl Methacrylate) it was 100 % by weight. In addition, the “Residual Rate (% by weight) after 7 Days” value in series [2] (in Dodecyl Methacrylate) and in series [2] (in Ethyl Acrylate) was 100 % by weight throughout.

Consider `COc1ccc2c(c1)c(CC(=O)O)c(C)n2C(=O)c1ccc(Cl)cc1` [IMT, indomethacin], for which the “Solvency of the active substance” value was “Excellent” in series [1] (setting [3]); “Poor” in series [1] (setting [4]); “Poor” in series [1] (setting [5]); “Excellent” in series [1] (setting [6]); “Poor” in series [1] (setting [7]); “Poor” in series [1] (setting [8]). Besides, the “Solvency of the active substance” value in series [1] (setting [9]) and in series [1] (setting [10]) was “Poor” in each case. The “Residual Rate (% by weight) Immediately” value in series [2] (in 1-Vinyl-2-Pyrrolidone), in series [2] (in 2-Ethylhexyl Acrylate), in series [2] (in 2-Ethylhexyl Methacrylate), in series [2] (in Acrylic Acid), in series [2] (in Butyl Acrylate) and in series [2] (in Butyl Methacrylate) was 100 % by weight each time. Further, the “Residual Rate (% by weight) Immediately” value in series [2] (in Dodecyl Methacrylate) and in series [2] (setting [12]) was 100 % by weight each time. In addition, the “Residual Rate (% by weight) after 7 Days” value in series [2] (in 1-Vinyl-2-Pyrrolidone) worked out at 100 % by weight; in series [2] (in 2-Ethylhexyl Acrylate), 100 % by weight; in series [2] (in 2-Ethylhexyl Methacrylate), 100 % by weight; in series [2] (in Acrylic Acid), 100 % by weight; in series [2] (setting [11]) it was 100 % by weight; in series [2] (in Butyl Methacrylate) it was 99 % by weight. Besides, the “Residual Rate (% by weight) after 7 Days” value in series [2] (in Dodecyl Methacrylate) was 100 % by weight; in series [2] (in Ethyl Acrylate), 99 % by weight.

With `CC(C)(C)NCC(O)c1ccccc1Cl` (stereo not drawn) [TB, tulobuterol], the “Solvency of the active substance” value in series [1] (setting [3]), in series [1] (setting [4]), in series [1] (setting [5]), in series [1] (setting [6]), in series [1] (setting [7]) and in series [1] (setting [8]) was “Excellent” each time. The “Solvency of the active substance” value in series [1] (setting [9]) is on record as “Good”; in series [1] (setting [10]) it was “Excellent”. For the same compound, the “Residual Rate (% by weight) Immediately” value in series [2] (in 1-Vinyl-2-Pyrrolidone), in series [2] (in 2-Ethylhexyl Acrylate), in series [2] (in 2-Ethylhexyl Methacrylate), in series [2] (in Acrylic Acid), in series [2] (in Butyl Acrylate) and in series [2] (in Butyl Methacrylate) was 100 % by weight each time. In addition, the “Residual Rate (% by weight) Immediately” value in series [2] (in Dodecyl Methacrylate) and in series [2] (setting [12]) was 100 % by weight in each case. In addition, the “Residual Rate (% by weight) after 7 Days” value was 100 % by weight in series [2] (in 1-Vinyl-2-Pyrrolidone); 88 % by weight in series [2] (in 2-Ethylhexyl Acrylate); 100 % by weight in series [2] (in 2-Ethylhexyl Methacrylate); 96 % by weight in series [2] (in Acrylic Acid); 81 % by weight in series [2] (setting [11]); 100 % by weight in series [2] (in Butyl Methacrylate). The “Residual Rate (% by weight) after 7 Days” value in series [2] (in Dodecyl Methacrylate) is listed as 100 % by weight; in series [2] (in Ethyl Acrylate), 70 % by weight.
